Measured values reported in PubChem BioAssay (NCI).
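Results reflect a 48-hour exposure of cells in 96-well plates to compound at five concentrations. At the TGI there is no net growth.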

What was measured:
Assay in all cases: NCI-60 cell line screen, 48 h
NCI-H23 lung = tested on: NCI-H23 lung
TK-10 renal = tested on: TK-10 renal
BT-549 breast = tested on: BT-549 breast
A549 NSCLC = tested on: A549 NSCLC
SK-MEL-28 melanoma = tested on: SK-MEL-28 melanoma
SF-539 CNS = tested on: SF-539 CNS
A498 renal = tested on: A498 renal
MDA-MB-435 = tested on: MDA-MB-435
NCI-H460 lung = tested on: NCI-H460 lung
RXF 393 renal = tested on: RXF 393 renal
SK-OV-3 ovarian = tested on: SK-OV-3 ovarian
EKVX NSCLC = tested on: EKVX NSCLC
HOP-62 NSCLC = tested on: HOP-62 NSCLC
SR leukemia = tested on: SR leukemia
UO-31 renal = tested on: UO-31 renal
IGROV1 ovarian = tested on: IGROV1 ovarian
SK-MEL-5 melanoma = tested on: SK-MEL-5 melanoma
MDA-N = tested on: MDA-N
MALME-3M melanoma = tested on: MALME-3M melanoma
MOLT-4 leukemia = tested on: MOLT-4 leukemia

Compound | TGI (NCI-H23 lung) [µM] | TGI (TK-10 renal) [µM] | TGI (BT-549 breast) [µM] | TGI (A549 NSCLC) [µM] | TGI (SK-MEL-28 melanoma) [µM] | TGI (SF-539 CNS) [µM] | TGI (A498 renal) [µM] | TGI (MDA-MB-435) [µM] | TGI (NCI-H460 lung) [µM] | TGI (RXF 393 renal) [µM] | TGI (SK-OV-3 ovarian) [µM] | TGI (EKVX NSCLC) [µM] | TGI (HOP-62 NSCLC) [µM] | TGI (SR leukemia) [µM] | TGI (UO-31 renal) [µM] | TGI (IGROV1 ovarian) [µM] | TGI (SK-MEL-5 melanoma) [µM] | TGI (MDA-N) [µM] | TGI (MALME-3M melanoma) [µM] | TGI (MOLT-4 leukemia) [µM]
COc1ccc(/C=C/C(=O)c2cccc(C(=O)/C=C/c3ccc(OC)c(OC)c3)n2)cc1OC | > 100 | > 100 | 44.9 | > 100 | 45 | 38.4 | > 100 | > 100 | > 100 | > 86.1 | > 100 | > 100 | > 100 | > 25.9 | 43.4 | > 95.5 | > 100 | 34.8 | 70.5 | 
CCOC(=O)CCN1C(=O)c2ccc(NC(=O)C(=O)O)cc2S1(=O)=O | > 100 | > 100 | > 100 | > 100 | > 100 | > 100 | > 100 | > 100 | > 100 |  | > 100 | > 100 | > 100 | > 100 | > 100 | > 100 | > 100 | > 100 | > 100 | > 100
COc1ccc2c(c1)nc1n2C(c2c(F)cccc2F)SC1 (centres undefined) | > 100 | > 100 | > 100 | > 100 | > 100 | > 100 | > 100 | > 100 | > 100 | > 100 | > 100 | > 100 | > 100 | > 100 | > 100 | > 100 | 56.4 | > 100 |  | > 100
CN(C)c1ccc(/C=C(\NC(=O)c2ccccc2)c2nc3ccccc3c(=O)o2)cc1 | > 100 | > 100 | > 100 | > 100 | > 100 | > 100 | > 100 | > 100 | > 100 | > 100 | > 100 | > 100 | > 100 |  | > 100 | > 100 | > 100 | > 100 | > 100 | > 100
CN(C(=O)C12C3C4C1C1C2C3C41C(=O)O)C(C)(C)C (centres undefined) | > 100 | > 100 | > 100 | > 100 | > 100 | > 100 | > 100 | > 100 | > 100 | > 100 |  | > 100 | > 100 | > 100 | > 100 | > 100 | > 100 | > 100 |  | > 100
